The values below come from patent publication US12577230B2, “2-(3-pyridin-2-yl-4-quinolin-4-yl-pyrazol-1-yl)- acetamide derivatives as inhibitors of transforming growth factor-beta receptor I/ALK5” (AGOMAB SPAIN S.L.U., priority 2020, dated 2026).

Usually IC50 stands for the point on the concentration scale where inhibition reaches its midpoint. Read a high IC50 as weaker potency.

Series [1] can be described thus: Determination of plasma stability in human plasma. It is filed as in vitro ADME. The conditions noted are these: 10 μM, 37° C. How it is done:
Determination of Plasma Stability of Some Compounds
Human plasma pooled from healthy donors extracted in citrate tubes was employed in the assay. Briefly, plates containing 10 μM compounds in plasma (total volume: 50 μL) were incubated at 37° C. at the different times (0, 30, 120 and 360 min). Then 100 μl Acetonitrile were added for precipitating plasma protein, and the plate was centrifuged at 46000 g for 60 min at 5° C. Supernatant was taken and analysed by UPLC/MS/MS for sample quantification. Stationary phase: Reverse phase Acquity UPLC® BEH C18 1.7 μm (2.1 mm×50 mm) (Waters). Mobile phase: 0.1% Formic acid water/0.1% formic acid in acetonitrile.
Flow: 0.6 ml/min. The chromatographic equipment employed was an UPL QSM Waters Acquity. Compound concentrations were calculated from the MS peak areas.

Series [2] deals with T1, Human TGFβR-1 (Homo sapiens, UniProt P36897).
T1 construct: purchased Promega V4092
T1 sequence (P36897 34-503): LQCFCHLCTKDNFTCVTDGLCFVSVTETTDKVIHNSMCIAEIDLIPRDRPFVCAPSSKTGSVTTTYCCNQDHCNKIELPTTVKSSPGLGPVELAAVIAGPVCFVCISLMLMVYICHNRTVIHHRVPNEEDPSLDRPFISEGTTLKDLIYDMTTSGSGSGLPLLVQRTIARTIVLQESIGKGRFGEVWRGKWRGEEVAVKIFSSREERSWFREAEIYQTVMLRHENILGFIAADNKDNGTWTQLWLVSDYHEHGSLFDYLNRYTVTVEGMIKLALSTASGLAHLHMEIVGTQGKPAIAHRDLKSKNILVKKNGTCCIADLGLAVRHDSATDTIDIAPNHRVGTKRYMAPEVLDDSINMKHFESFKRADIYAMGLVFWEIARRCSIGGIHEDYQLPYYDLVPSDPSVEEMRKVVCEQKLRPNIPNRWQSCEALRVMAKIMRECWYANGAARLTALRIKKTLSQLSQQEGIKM
Nature of the series: In vitro enzyme assay: inhibition of TGFβR-1 (ADP-Glo kinase assay). It is filed as biochemical. The conditions noted are these: TGFβR-1 kinase 50 ng/well, 50 μM ATP, 120 min RT. An excerpt:
In the present application are used the following abbreviations, with the corresponding definitions: • AcOH: Acetic Acid • ACVR2B: activin A receptor, type IIB • ALKn: activin receptor-like kinase n • ATP: adenosin triphosphate • Boc2O: tert-butyl dicarbonate • Boc: tert-Butoxycarbonyl • Clint: Intrinsic clearance • DIPEA: N,N-Diisopropylethylamine • DMA: Dimethylacetamide • DMAP: 4-Dimethylaminopyridine • DMF: N,N-Dimethylformamide • DMSO: Dimethyl sulfoxide • EDCl: N-(3-Dimethylaminopropyl)-N′-ethylcarbodiimide) • Et3N: Triethylamine • EtOAc: Ethyl acetate • EtOH: ethanol • FBS: Fetal bovine serum • H: hour • HATU: 1-[Bis(dimethylamino)methylene]-1H-1,2,3-triazolo[4,5-b]pyridinium 3-oxide hexafluorophosphate • HOBT: Hydroxybenzotriazole • HPLC: High-performance liquid chromatography • ^1H-NMR: Proton nuclear magnetic resonance • K2EDTA: ethylenediaminetetracetic acid dipotassium salt • LC: Liquid chromatography • LiHMDS: Lithium bis(trimethylsilyl)amide • LLOQ: lower limit of quantification • MeCN: Acetonitrile • MeOH: Methanol • Min: minutes • MS: Mass spectroscopy • MTBE: Methyl tert-butyl ether • NBS: N-Bromosuccinimide • NaCMC: Sodium carboxymethyl cellulose • Rt: retention time • RT: room temperature • Sem: 2-(Trimethylsilyl)ethoxymethyl • TGFβ: transforming growth factor-β • THF: Tetrahydrofuran • THF:EtOH: Tetrahydrofuran:ethanol • UPLC: ultra high-performance liquid chromatography • UV: Ultraviolet Pharmacological Activity In Vitro Enzyme Assay: Inhibition of TGFβR-1 Human TGFβR-1 inhibition experiments were carried out in a white 384-microplate low flange (Corning 3572) with ADP-Glo kinase Assay Kit (Promega V9101) and TGFβR-1 Kinase Enzyme System (Promega V4092). Test compounds and standard Galunisertib (Cayman 15312), 50 ng/well TGFβR-1 kinase and 50 μM ATP were added in a final volume of 10 μL/well, using Reaction buffer supplied by kit as assay buffer. The reaction mixture was incubated in gentle shaking for 120 min at RT, after incubation of 10 μL of ADP-Glo Reagent was added and incubated in gentle shaking for 40 min at RT. 20 μL of Kinase Detection Reagent was added and plate was incubated in gentle shaking for 30 min at RT. Luminescence (1000 ms) was measured in Perkin Elmer EnSpire Multimode plate reader. Results
A general note: ADP-Glo first removes unused ATP, then detects ADP through luciferase.

The target in series [3] is T2, ALK-5 (Homo sapiens, UniProt P36897).
T2 construct: endogenous in cells; host or cells: A549
T2 sequence (P36897 34-503): T1 sequence (P36897 34-503)
Nature of the series: Determination of the intracellular TGF-beta kinase activity (ALK-5), AlphaLISA SureFire p-SMAD3 in A549 cells. It is filed as cell-based. The conditions noted are these: A549 cell line, TGF-β2 activated, p-SMAD3(Ser423/425). As for the experimental part: Determination of the Intracellular TGF-Beta Kinase Activity (ALK-5)
The experiments were carried out in A549 cell line. 30000 cells were seeded in 200 μl of culture medium (Sigma D6046) supplemented with L-Glutamine (Sigma G7513), Penicillin/Streptomycin (Invitrogen 11058) and FBS (Sigma F9665) on a 96 wells microplate (Becton Dickinson 353072). After 16 hours medium was changed to serum free medium. Galunisertib, as inhibitor ligand (Cayman CAY-15312) and recombinant Human TGF-β2 (R&D Systems 302-B2-002) as activator of the ALK-5, were added in their corresponding wells and incubated following the instructions of the Alphascreen AlphaLISA@SureFire® Ultra™ p-SMAD3(Ser423/425) Kit (Perkin Elmer ALSU-PSM3-A500).
(In general: Bead proximity is the source of the signal in Alpha formats.)

Regarding `CCN(CC)CCOC(=O)c1cc(F)cc(NC(=O)Cn2cc(-c3ccnc4ccccc34)c(-c3cccc(C)n3)n2)c1` [Example 7, 2-(diethylamino)ethyl 3-fluoro-5-(2-(3-(6-methylpyridin-2-yl)-4-(quinolin-4-yl)-1H-pyrazol-1-yl)acetamido)benzoate], in series [1], the “remaining percentage 0 min” value is recorded as 100%, the “remaining percentage 30 min” value worked out at 16.0%, the “remaining percentage 120 min” value turned out to be 3.3% and the “remaining percentage 360 min” value is given as 0.1%. In addition, the IC50 in series [2] is 100 to 250 nM. Moreover, the IC50 in series [3] was less than 1000 nM.
As to `Cc1cccc(-c2nn(CC(=O)Nc3cc(F)cc(C(=O)OC4CCNCC4)c3)cc2-c2ccnc3ccccc23)n1` [Example 21, piperidin-4-yl 3-fluoro-5-(2-(3-(6-methylpyridin-2-yl)-4-(quinolin-4-yl)-1H-pyrazol-1-yl)acetamido)benzoate], in series [1], the “remaining percentage 0 min” value is 100%, the “remaining percentage 30 min” value is 74.3%, the “remaining percentage 120 min” value came out at 34.2% and the “remaining percentage 360 min” value worked out at 6.3%. For the same compound, in series [2], the IC50 was less than 100 nM. In series [3], the IC50 was more than 1000 nM.
With `Cc1cccc(-c2nn(CC(=O)Nc3ccc(C(=O)OCCN(C)C)nc3)cc2-c2ccnc3ccccc23)n1` [Example 5, 2-(dimethylamino)ethyl 5-(2-(3-(6-methylpyridin-2-yl)-4-(quinolin-4-yl)-1H-pyrazol-1-yl)acetamido)picolinate], in series [1], the “remaining percentage 0 min” value is reported as 100%, the “remaining percentage 30 min” value was determined as 10%, the “remaining percentage 120 min” value is 0% and the “remaining percentage 360 min” value was 0%. Also, in series [2], the IC50 was less than 100 nM. For the same compound, the 50% inhibitory concentration (IC50) in series [3] is more than 1000 nM.
Consider `Cc1cccc(-c2nn(CC(=O)Nc3cc(F)cc(C(=O)OCC4CCN(C)CC4)c3)cc2-c2ccnc3ccccc23)n1` [Example 9, (1-methylpiperidin-4-yl)methyl 3-fluoro-5-(2-(3-(6-methylpyridin-2-yl)-4-(quinolin-4-yl)-1H-pyrazol-1-yl)acetamido)benzoate], for which, in series [1], the “remaining percentage 0 min” value was 100%, the “remaining percentage 30 min” value is 16.6%, the “remaining percentage 120 min” value worked out at 3.1% and the “remaining percentage 360 min” value is recorded as 0%. The IC50 in series [2] was less than 100 nM. Further, in series [3], the half-maximal inhibitory concentration (IC50) was less than 1000 nM.
With `Cc1cccc(-c2nn(CC(=O)Nc3cc(F)cc(C(=O)OCCN(C)C)c3)cc2-c2ccnc3ccccc23)n1` [Example 1, 2-(dimethylamino)ethyl 3-fluoro-5-(2-(3-(6-methylpyridin-2-yl)-4-(quinolin-4-yl)-1H-pyrazol-1-yl)acetamido)benzoate], in series [1], the “remaining percentage 0 min” value came to 100%, the “remaining percentage 30 min” value is reported as 0%, the “remaining percentage 120 min” value is given as 0% and the “remaining percentage 360 min” value is on record as 0%. In addition, in series [2], the IC50 is less than 100 nM. The IC50 in series [3] was less than 1000 nM.
For `CNCCOC(=O)c1cc(F)cc(NC(=O)Cn2cc(-c3ccnc4ccccc34)c(-c3cccc(C)n3)n2)c1` [Example 15, 2-(methylamino)ethyl 3-fluoro-5-(2-(3-(6-methylpyridin-2-yl)-4-(quinolin-4-yl)-1H-pyrazol-1-yl)acetamido)benzoate], the values for the IC50 in series [2] and in series [3] were less than 100 nM and more than 1000 nM, respectively.
For the compound `Cc1cccc(-c2nn(CC(=O)Nc3cc(F)cc(C(=O)OCCN4CCNCC4)c3)cc2-c2ccnc3ccccc23)n1` [Example 19, 2-(piperazin-1-yl)ethyl 3-fluoro-5-(2-(3-(6-methylpyridin-2-yl)-4-(quinolin-4-yl)-1H-pyrazol-1-yl)acetamido)benzoate], in series [1], the “remaining percentage 0 min” value was found to be 100%, the “remaining percentage 30 min” value turned out to be 1.9%, the “remaining percentage 120 min” value came out at 0.3% and the “remaining percentage 360 min” value amounted to 0%. In series [2], the IC50 is less than 100 nM. Further, the IC50 in series [3] is less than 1000 nM.
`Cc1cccc(-c2nn(CC(=O)Nc3cc(F)cc(C(=O)OCCN4CCOCC4)c3)cc2-c2ccnc3ccccc23)n1` [Example 4, 2-morpholinoethyl 3-fluoro-5-(2-(3-(6-methylpyridin-2-yl)-4-(quinolin-4-yl)-1H-pyrazol-1-yl)acetamido)benzoate]: the values for the IC50 in series [2] and in series [3] were 100 to 250 nM and less than 1000 nM, respectively.
